Measurements taken from patent publication US20230270825A1, “STAPLED OLEFIN CO-AGONISTS OF THE GLUCAGON AND GLP-1 RECEPTORS” (Merck Sharp & Dohme LLC, priority 2019, published 2023).
Numbered stars: 1 amine (or outer) side, 2 acyl side, 3 side chain; on linkers, the order of the positions; unused ones are H or OH. Bridge positions count the residues as written; N and C are the ends. Square brackets hold non-standard residues; d marks the D form. Side chains are listed from the residue outwards. Peptide text beside a SMILES is read from it. * marks the point of attachment. Nle(6-ylidene) = O=C([C@H](CCCC=[*:3])N[*:1])[*:2]; S7 = C[C@@](CCCCCC=[*:3])(N[*:1])C(=O)[*:2]; X1 = C[C@](CCCCC=[*:3])(N[*:1])C(=O)[*:2]; γGlu = O=C(O)[C@H](CCC(=O)[*:2])N[*:1]; Palmitoyl = CCCCCCCCCCCCCCCC(=O)*; Aib = CC(C)(N)C(=O)O

Molecular target: T1, human GCGR (Homo sapiens, UniProt P47871)
T1 construct: expressed in transfected cells; assay-ready frozen cells grown with Blasticidin and Hygromycin
T1 sequence (P47871 26-477): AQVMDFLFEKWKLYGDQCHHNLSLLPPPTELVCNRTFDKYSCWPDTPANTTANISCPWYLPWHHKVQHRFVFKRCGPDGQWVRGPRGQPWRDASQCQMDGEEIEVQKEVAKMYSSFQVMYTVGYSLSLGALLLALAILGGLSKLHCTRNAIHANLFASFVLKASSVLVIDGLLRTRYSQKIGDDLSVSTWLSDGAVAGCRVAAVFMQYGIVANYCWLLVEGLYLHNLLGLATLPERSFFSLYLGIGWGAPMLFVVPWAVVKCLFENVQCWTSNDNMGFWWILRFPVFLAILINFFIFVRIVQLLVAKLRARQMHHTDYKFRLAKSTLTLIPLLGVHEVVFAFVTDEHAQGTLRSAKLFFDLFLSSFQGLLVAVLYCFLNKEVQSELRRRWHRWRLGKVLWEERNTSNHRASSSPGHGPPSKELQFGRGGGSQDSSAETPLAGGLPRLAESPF
Assay: cAMP activity assay, cells expressing human GCGR (HitHunter cAMP XS)
Format: cell-based
Conditions: for EC50: cAMP production, 1 hour at room temperature, assay buffer with or without 20% human serum (not stated which); for hGCGR/hGLP1R (hTone): ratio of human GCGR EC50 to human GLP1R EC50
Protocol: Activity of the peptides at the Glucagon receptor (GCGR) and GLP-1 receptor (GLP1R) was measured in a cAMP activity assay.
Peptides were dissolved in 100% DMSO and serially diluted to generate 10 point titrations. The peptide solutions were then transferred into 384-well assay plates (150 nL/well).
Assay ready frozen cells expressing human GLP1R or human GCGR were suspended in growth media consisting of DMEM medium (GIBCO), 10% FBS (GIBCO), 1x NEAA(GIBCO), 1x P/S (GIBCO), 10ug/ml Blasticidin (GIBCO) and 200 µg/mL Hygromycin (GIBCO). Cells were then diluted in assay buffer consisting of PBS (GIBCO), 7.5% BSA (Perkin Elmer), 100 µM RO 20-1724 (Sigma), with or without 20% human serum (MP Biomedical). The cell suspensions (15 µL) were then added to the assay plates containing the peptide solutions (30,000 cells/well for human GCGR; 10.000 cells/well for human GLP1R). The cells were incubated for 1 hour at room temperature in the dark. Production of cAMP was determined using HitHunter™ cAMPXS kits (DiscoverX) following manufacturer protocol. The plates were incubated for overnight at room temperature in the dark. Luminescence was measured using an EnVision Multilabel plate reader (Perkin Elmer). Native GLP-1 and Glucagon (Bachem) are used as control peptides. EC50 values were calculated using uses a 4 parameter logistic fit based on the Levenberg-Marquardt algorithm.

SMILES | EC50 | hGCGR/hGLP1R (hTone)
CCCCCCCCCCCCCCCC(=O)N[C@@H](CCC(=O)N[C@@H](CCC(=O)NCCCC[C@H](NC(=O)[C@H](CC(=O)O)NC(=O)[C@H](CO)NC(=O)[C@@H](NC(=O)[C@H](Cc1ccccc1)NC(=O)[C@@H](NC(=O)CNC(=O)[C@H](CCC(N)=O)NC(=O)[C@@H](CO)NC(=O)[C@@H](N)Cc1c[nH]cn1)[C@@H](C)O)[C@@H](C)O)C(=O)N[C@@H](CO)C(=O)N[C@]1(C)CCCCC=CCCCCC[C@@](C)(C(=O)N[C@@H](CCC(N)=O)C(=O)N[C@@H](CC(=O)O)C(=O)N[C@@H](Cc2ccccc2)C(=O)N[C@H](C(=O)N[C@@H](CCC(N)=O)C(=O)N[C@@H](Cc2c[nH]c3ccccc23)C(=O)N[C@@H](CC(C)C)C(=O)N[C@@H](CC(C)C)C(=O)N[C@@H](CC(=O)O)C(=O)N[C@H](C(N)=O)[C@@H](C)O)C(C)C)NC(=O)[C@H](C)NC(=O)[C@H](CCCNC(=N)N)NC(=O)[C@H](CCC(=O)O)NC(=O)[C@H](CC(=O)O)NC(=O)[C@H](CC(C)C)NC(=O)[C@H](Cc2ccc(O)cc2)NC1=O)C(=O)O)C(=O)O [compound 7] (H-H[dS]QGTFTSDK([γGlu-γGlu-Palmitoyl])S[X1]YLDERA[S7]QDFVQWLLDT-NH2; staple 12-19) | 5 nM | 
CCCCCCCCCCCCCCCC(=O)N[C@@H](CCC(=O)N[C@@H](CCC(=O)NCCCC[C@H](NC(=O)[C@H](CC(=O)O)NC(=O)[C@H](CO)NC(=O)[C@@H](NC(=O)[C@H](Cc1ccccc1)NC(=O)[C@@H](NC(=O)CNC(=O)[C@H](CCC(N)=O)NC(=O)[C@@H](CO)NC(=O)[C@@H](N)Cc1c[nH]cn1)[C@@H](C)O)[C@@H](C)O)C(=O)N[C@@H](CO)C(=O)N[C@@H](CCCCN)C(=O)N[C@@H](Cc1ccc(O)cc1)C(=O)N[C@@H](CC(C)C)C(=O)N[C@@H](CC(=O)O)C(=O)N[C@@H](CCC(=O)O)C(=O)N[C@]1(C)CCCCC=CCCCCC[C@@](C)(C(=O)N[C@@H](Cc2c[nH]c3ccccc23)C(=O)N[C@@H](CC(C)C)C(=O)N[C@@H](CC(C)C)C(=O)N[C@@H](CC(=O)O)C(=O)N[C@H](C(N)=O)[C@@H](C)O)NC(=O)[C@H](C(C)C)NC(=O)[C@H](Cc2ccccc2)NC(=O)[C@H](CC(=O)O)NC(=O)[C@H](CCC(N)=O)NC(=O)[C@H](C)NC(=O)[C@H](C)NC1=O)C(=O)O)C(=O)O [compound 8] (H-H[dS]QGTFTSDK([γGlu-γGlu-Palmitoyl])SKYLDE[X1]AAQDFV[S7]WLLDT-NH2; staple 17-24) | 5 nM | 
CC(C)C[C@H](NC(=O)[C@H](Cc1ccc(O)cc1)NC(=O)[C@H](CCCCN)NC(=O)[C@H](CO)NC(=O)[C@H](CCCCN)NC(=O)[C@H](CC(=O)O)NC(=O)[C@H](CO)NC(=O)[C@@H](NC(=O)[C@H](Cc1ccccc1)NC(=O)[C@@H](NC(=O)CNC(=O)[C@H](CCC(N)=O)NC(=O)[C@@H](CO)NC(=O)[C@@H](N)Cc1c[nH]cn1)[C@@H](C)O)[C@@H](C)O)C(=O)N[C@@H](CC(=O)O)C(=O)N[C@@H](CCC(=O)O)C(=O)N[C@]1(C)CCCCC=CCCCCC[C@@](C)(C(=O)N[C@@H](Cc2c[nH]c3ccccc23)C(=O)N[C@@H](CC(C)C)C(=O)N[C@@H](CC(C)C)C(=O)N[C@@H](CC(=O)O)C(=O)N[C@H](C(N)=O)[C@@H](C)O)NC(=O)[C@H](C(C)C)NC(=O)[C@H](Cc2ccccc2)NC(=O)[C@H](CC(=O)O)NC(=O)[C@H](CCC(N)=O)NC(=O)[C@H](C)NC(=O)[C@H](C)NC1=O [compound 9] (H-H[dS]QGTFTSDKSKYLDE[X1]AAQDFV[S7]WLLDT-NH2; staple 17-24) | 5 nM | 
CCCCCCCCCCCCCCCC(=O)N[C@@H](CCC(=O)N[C@@H](CCC(=O)NCCCC[C@H](NC(=O)[C@H](CC(=O)O)NC(=O)[C@H](CO)NC(=O)[C@@H](NC(=O)[C@H](Cc1ccccc1)NC(=O)[C@@H](NC(=O)CNC(=O)[C@H](CCC(N)=O)NC(=O)[C@@H](CO)NC(=O)[C@@H](N)Cc1c[nH]cn1)[C@@H](C)O)[C@@H](C)O)C(=O)N[C@@H](CO)C(=O)N[C@@H](CCCCN)C(=O)N[C@@H](Cc1ccc(O)cc1)C(=O)N[C@@H](CC(C)C)C(=O)N[C@@H](CC(=O)O)C(=O)N[C@@H](CCC(=O)O)C(=O)N[C@@H](CCCNC(=N)N)C(=O)N[C@@H](C)C(=O)N[C@@H](C)C(=O)N[C@]1(C)CCCCC=CCCCCC[C@@](C)(C(=O)N[C@@H](CC(=O)O)C(=O)N[C@H](C(N)=O)[C@@H](C)O)NC(=O)[C@H](CC(C)C)NC(=O)[C@H](Cc2c[nH]c3ccccc23)NC(=O)[C@H](CCC(N)=O)NC(=O)[C@H](C(C)C)NC(=O)[C@H](Cc2ccccc2)NC(=O)[C@H](CC(=O)O)NC1=O)C(=O)O)C(=O)O [compound 10] (H-H[dS]QGTFTSDK([γGlu-γGlu-Palmitoyl])SKYLDERAA[X1]DFVQWL[S7]DT-NH2; staple 20-27) |  | 19.02
CC(C)C[C@H](NC(=O)[C@H](Cc1ccc(O)cc1)NC(=O)[C@H](CCCCN)NC(=O)[C@H](CO)NC(=O)[C@H](CCCCN)NC(=O)[C@H](CC(=O)O)NC(=O)[C@H](CO)NC(=O)[C@@H](NC(=O)[C@H](Cc1ccccc1)NC(=O)[C@@H](NC(=O)CNC(=O)[C@H](CCC(N)=O)NC(=O)[C@@H](CO)NC(=O)[C@@H](N)Cc1c[nH]cn1)[C@@H](C)O)[C@@H](C)O)C(=O)N[C@@H](CC(=O)O)C(=O)N[C@@H](CCC(=O)O)C(=O)N[C@@H](CCCNC(=N)N)C(=O)N[C@@H](C)C(=O)N[C@@H](C)C(=O)N[C@]1(C)CCCCC=CCCCCC[C@@](C)(C(=O)N[C@@H](CC(=O)O)C(=O)N[C@H](C(N)=O)[C@@H](C)O)NC(=O)[C@H](CC(C)C)NC(=O)[C@H](Cc2c[nH]c3ccccc23)NC(=O)[C@H](CCC(N)=O)NC(=O)[C@H](C(C)C)NC(=O)[C@H](Cc2ccccc2)NC(=O)[C@H](CC(=O)O)NC1=O [compound 11] (H-H[dS]QGTFTSDKSKYLDERAA[X1]DFVQWL[S7]DT-NH2; staple 20-27) | 5 nM | 1.82
CCCCCCCCCCCCCCCC(=O)N[C@@H](CCC(=O)N[C@@H](CCC(=O)NCCCC[C@H](NC(=O)[C@H](CC(=O)O)NC(=O)[C@H](CO)NC(=O)[C@@H](NC(=O)[C@H](Cc1ccccc1)NC(=O)[C@@H](NC(=O)CNC(=O)[C@H](CCC(N)=O)NC(=O)C(C)(C)NC(=O)[C@@H](N)Cc1c[nH]cn1)[C@@H](C)O)[C@@H](C)O)C(=O)N[C@@H](CO)C(=O)N[C@@H](CCCCN)C(=O)N[C@@H](Cc1ccc(O)cc1)C(=O)N[C@@H](CC(C)C)C(=O)N[C@@H](CC(=O)O)C(=O)NC(C)(C)C(=O)N[C@@H](CCCNC(=N)N)C(=O)N[C@@H](C)C(=O)N[C@@H](C)C(=O)N[C@@H](CCC(N)=O)C(=O)N[C@]1(C)CCCCC=CCCCCC[C@@](C)(C(=O)N[C@H](C(=O)N[C@@H](CCCCN)C(=O)N[C@@H](CCC(N)=O)C(=O)O)[C@@H](C)O)NC(=O)[C@H](CCSC)NC(=O)[C@H](CC(C)C)NC(=O)[C@H](Cc2c[nH]c3ccccc23)NC(=O)[C@H](CCC(N)=O)NC(=O)[C@H](C(C)C)NC(=O)[C@H](Cc2ccccc2)NC1=O)C(=O)O)C(=O)O [compound 13] (H-H[Aib]QGTFTSDK([γGlu-γGlu-Palmitoyl])SKYLD[Aib]RAAQ[X1]FVQWLM[S7]TKQ-OH; staple 21-28) | 5 nM | 19.11
CCCCCCCCCCCCCCCC(=O)N[C@@H](CCC(=O)N[C@@H](CCC(=O)NCCCC[C@H](NC(=O)[C@H](CC(=O)O)NC(=O)[C@H](CO)NC(=O)[C@@H](NC(=O)[C@H](Cc1ccccc1)NC(=O)[C@@H](NC(=O)CNC(=O)[C@H](CCC(N)=O)NC(=O)[C@@H](CO)NC(=O)[C@@H](N)Cc1c[nH]cn1)[C@@H](C)O)[C@@H](C)O)C(=O)N[C@@H](CO)C(=O)N[C@@H](CCCCN)C(=O)N[C@@H](Cc1ccc(O)cc1)C(=O)N[C@@H](CC(C)C)C(=O)N[C@@H](CC(=O)O)C(=O)N[C@@H](CCC(=O)O)C(=O)N[C@@H](CCCNC(=N)N)C(=O)N[C@@H](C)C(=O)N[C@@H](C)C(=O)N[C@H]1CCCC=CCCC[C@@H](C(=O)N[C@@H](Cc2c[nH]c3ccccc23)C(=O)N[C@@H](CC(C)C)C(=O)N[C@@H](CC(C)C)C(=O)N[C@@H](CC(=O)O)C(=O)N[C@H](C(N)=O)[C@@H](C)O)NC(=O)[C@H](C(C)C)NC(=O)[C@H](Cc2ccccc2)NC(=O)[C@H](CC(=O)O)NC1=O)C(=O)O)C(=O)O [compound 15] (H-H[dS]QGTFTSDK([γGlu-γGlu-Palmitoyl])SKYLDERAA[Nle(6-ylidene)]DFV[Nle(6-ylidene)]WLLDT-NH2; staple 20-24) |  | 0.44
CCCCCCCCCCCCCCCC(=O)N[C@@H](CCC(=O)N[C@@H](CCC(=O)NCCCC[C@H](NC(=O)[C@H](CC(=O)O)NC(=O)[C@H](CO)NC(=O)[C@@H](NC(=O)[C@H](Cc1ccccc1)NC(=O)[C@@H](NC(=O)CNC(=O)[C@H](CCC(N)=O)NC(=O)C(C)(C)NC(=O)[C@@H](N)Cc1c[nH]cn1)[C@@H](C)O)[C@@H](C)O)C(=O)N[C@@H](CO)C(=O)N[C@@H](CCCCN)C(=O)N[C@@H](Cc1ccc(O)cc1)C(=O)N[C@@H](CC(C)C)C(=O)N[C@@H](CC(=O)O)C(=O)NC(C)(C)C(=O)N[C@@H](CCCNC(=N)N)C(=O)N[C@@H](C)C(=O)N[C@@H](C)C(=O)N[C@@H](CCC(N)=O)C(=O)N[C@@H](CC(=O)O)C(=O)N[C@@H](Cc1ccccc1)C(=O)N[C@H](C(=O)N[C@H]1CCCC=CCCC[C@@H](C(=O)N[C@H](C(=O)N[C@@H](CCCCN)C(=O)N[C@@H](CCC(N)=O)C(=O)O)[C@@H](C)O)NC(=O)[C@H](CC(C)C)NC(=O)[C@H](CC(C)C)NC(=O)[C@H](Cc2c[nH]c3ccccc23)NC1=O)C(C)C)C(=O)O)C(=O)O [compound 16] (H-H[Aib]QGTFTSDK([γGlu-γGlu-Palmitoyl])SKYLD[Aib]RAAQDFV[Nle(6-ylidene)]WLL[Nle(6-ylidene)]TKQ-OH; staple 24-28) |  | 2.67
